Test results: patent US11691962B2 (eXIthera Pharmaceuticals, Inc., priority 2018, dated 2023)

Experiments:
Assay type in all cases: biochemical
[1] = target: Thrombin (Homo sapiens (Human), UniProt P00734); assay: Dose response assay for protease inhibitors: thrombin; details: selectivity, thrombin over Factor XIa
Description: (§1) • Assay buffer: 20 mM Hepes, pH 7.4; 150 mM NaCl; 0.02% Tween 20 • Compounds: 10 mM stocks in DMSO • Substrate: 20 mM Glp-Pro-Arg-AMC, 25 mg/2.3 mL H2O (store at +4° C.) [Factor XIa, thrombin, and trypsin] • 20 mM Pro-Phe-Arg-AMC (Bachem I-1295), 25 mg/2.2 mL H2O • or Boc-Leu-Gly-Arg-AMC (Bachem I-1105), 25 mg/2.07 mL H2O • (store at +4° C.) [Factor Xa] • Enzyme: Factor XIa; 0.25 μM in 50% glycerol (20 μg/mL) • Trypsin; 0.2 μM in 50% glycerol (4.8 μg/mL) • Thrombin; 0.2 μM in 50% glycerol (7.34 μg/mL) • Factor Xa; 0.2 μM in 50% glycerol (9.2 μg/mL) • These stocks are aliquoted (˜100 μL/aliquot) and stored at −20° C. Methods: • 1. Dilute the substrate to 100 μM in assay buffer (30 μL/6 mL). The enzyme is diluted to 0.5 nM just prior to use (12 μL/6 mL for Factor XIa; 15 μL/6 mL for all of the rest.) • 2. Pipette 50 μL of substrate into each well of the 96 well (12×8) microtiter plate. (Column 1 is used as the 100% activity control and receives no compound, and Column 12 is the blank and receives no enzyme.) Add an additional 46 μL to column 2. • 3. Pipette 4 μL of each compound into the appropriate well in column 2 of the plate (unknowns assayed in triplicate, standard assayed in duplicate). The final compound concentration will be […] of the stock. • 4. Serially two-fold dilute the compound by mixing the sample in column 2, removing 50 μL to the next well (column 3), mix and remove to column 4, etc. until column 11. After mixing column 11, remove 50 μL and discard. • 5. Pipette 50 μL of buffer into column 12. Initiate the reaction by adding 50 μL of enzyme solution to each well of columns 1-11 as rapidly as possible. • 6. Read the plate in a spectrophotometer (SpectraMax) at 30° C., wherein each well is measured every 60 s for 30 min. For Factor Xa assays, each well is measured every 1 min for a total of 60 min. • 7. For Factor XIa assays, the compounds are assayed, in duplicate, at 3 different starting concentrations, 20, 2, and 0.2 μM; 1:10, 1:100, and 1:1000 dilution of 10 mM stock or at 2, 0.2, and 0.02 μM; 1:100, 1:1000, and 1:10,000 dilution of 10 mM stock. Data for each concentration are combined for graphing and data fitting. • 8. Data can be used both for estimation of IC50 and for estimation of Kon.

[2] = target: Factor Xa (Homo sapiens (Human), UniProt P00742); assay: Dose response assay for protease inhibitors: Factor Xa; details: selectivity, Factor Xa over Factor XIa
Chain of Factor Xa (P00742 235-488): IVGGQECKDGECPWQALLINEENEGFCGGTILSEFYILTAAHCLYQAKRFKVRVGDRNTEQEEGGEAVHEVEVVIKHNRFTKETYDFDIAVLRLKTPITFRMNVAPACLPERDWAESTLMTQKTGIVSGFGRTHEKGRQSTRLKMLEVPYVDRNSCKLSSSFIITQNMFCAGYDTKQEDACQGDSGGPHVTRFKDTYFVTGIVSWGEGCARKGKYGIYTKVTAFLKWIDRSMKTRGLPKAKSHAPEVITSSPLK
Chain of Factor Xa (P00742 41-179 partner): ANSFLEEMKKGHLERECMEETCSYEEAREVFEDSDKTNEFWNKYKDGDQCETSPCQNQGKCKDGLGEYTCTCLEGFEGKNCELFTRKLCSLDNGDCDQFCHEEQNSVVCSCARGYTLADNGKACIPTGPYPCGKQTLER
Description: as §1

[3] = tested on: Trypsin; assay: Dose response assay for protease inhibitors: trypsin; details: selectivity, trypsin over Factor XIa
Description: as §1

[4] = target: Factor XIa (Homo sapiens (Human), UniProt P03951); assay: Factor XIa enzyme inhibition assay (dose response, fluorogenic AMC substrate); details: read-out: hFXIa IC50
Chain of Factor XIa (P03951 388-625): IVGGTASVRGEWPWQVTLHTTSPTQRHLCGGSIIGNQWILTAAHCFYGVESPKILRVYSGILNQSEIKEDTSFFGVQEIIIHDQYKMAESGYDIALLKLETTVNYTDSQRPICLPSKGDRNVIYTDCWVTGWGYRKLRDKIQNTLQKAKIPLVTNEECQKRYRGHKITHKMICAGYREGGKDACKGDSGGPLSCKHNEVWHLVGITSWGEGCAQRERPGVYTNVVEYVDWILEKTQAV
Chain of Factor XIa (P03951 19-387 partner): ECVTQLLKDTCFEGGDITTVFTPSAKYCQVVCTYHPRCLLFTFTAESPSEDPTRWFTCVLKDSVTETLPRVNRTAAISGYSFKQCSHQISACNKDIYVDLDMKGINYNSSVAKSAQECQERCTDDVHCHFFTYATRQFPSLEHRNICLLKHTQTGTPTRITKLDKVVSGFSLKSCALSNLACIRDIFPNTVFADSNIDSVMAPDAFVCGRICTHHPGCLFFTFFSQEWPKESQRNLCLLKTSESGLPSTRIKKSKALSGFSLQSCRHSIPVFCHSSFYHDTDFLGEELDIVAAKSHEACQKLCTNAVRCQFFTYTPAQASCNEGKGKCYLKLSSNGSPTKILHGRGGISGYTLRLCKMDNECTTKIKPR
Outline: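 Fluorogenic progress curves (30 min, 1-min reads, 30° C) were recorded for 0.25 nM FXIa cleaving 50 μM Glp-Pro-Arg-AMC in Hepes pH 7.4 buffer with NaCl and Tween 20. Compounds were serially two-fold diluted, and IC50 was fitted with a Hill equation.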

| SMILES | Ratio: Thrombin/FXIa [1] | Ratio: FXa/FXIa [2] | IC50 [4] | Ratio: Trypsin/FXIa [3] |
| --- | --- | --- | --- | --- |
| CC[C@@H](NC(=O)N1C(=O)[C@H](Cc2cc(C)nc(N)c2)[C@H]1C(=O)N(C)c1cn(C)cn1)c1ccccc1 [Compound 1-52, (2S,3R)-3-((2-amino-6-methylpyridin-4-yl)methyl)-N2-(1-methyl-1H-imidazol-4-yl)-N1-((R)-1-phenylpropyl)-N2-methyl-4-oxoazetidine-1,2-dicarboxamide] | G (“G” indicates 1-100) | H (“H” indicates 101-1000) | 10 to 100 nM | G (“G” indicates 1-100) |
| CC[C@@H](NC(=O)N1C(=O)[C@H](Cc2ccnc(N)c2)[C@H]1C(=O)N(C)c1cnn(C)c1)C1CCCCC1 [Compound 1-69, (2S,3R)-3-((2-aminopyridin-4-yl)methyl)-N2-(1-methyl-1H-pyrazol-4-yl)-N1-((R)-1-cyclohexylpropyl)-N2-methyl-4-oxoazetidine-1,2-dicarboxamide] | G (“G” indicates 1-100) | H (“H” indicates 101-1000) | 10 to 100 nM | G (“G” indicates 1-100) |
| CC[C@@H](NC(=O)N1C(=O)[C@H](Cc2cc(C)nc(NC)c2)[C@H]1C(=O)N(C)c1cn(C)cn1)c1ccccc1 [Compound 1-72, (2S,3R)-3-((2-methylamino-6-methylpyridin-4-yl)methyl)-N2-(1-methyl-1H-imidazol-4-yl)-N1-((R)-1-phenylpropyl)-N2-methyl-4-oxoazetidine-1,2-dicarboxamide] | G (“G” indicates 1-100) | H (“H” indicates 101-1000) | 10 to 100 nM | G (“G” indicates 1-100) |
| CC[C@@H](NC(=O)N1C(=O)[C@H](Cc2ccnc(N)c2)[C@H]1C(=O)N(C)c1nccn1C)c1ccc(OC(F)(F)F)cc1 [Compound 1-97, (2S,3R)-3-((2-aminopyridin-4-yl)methyl)-N2-(1-methyl-1H-imidazol-2-yl)-N1-((R)-1-(4-trifluoromethoxyphenyl)propyl)-N2-methyl-4-oxoazetidine-1,2-dicarboxamide] | H (“H” indicates 101-1000) | H (“H” indicates 101-1000) | 10 to 100 nM | G (“G” indicates 1-100) |
| CC[C@@H](NC(=O)N1C(=O)[C@H](Cc2ccnc(N)c2)[C@H]1C(=O)N(C)c1nccn1C)c1cc(C)ccc1C [Compound 1-99, (2S,3R)-3-((2-aminopyridin-4-yl)methyl)-N2-(1-methyl-1H-imidazol-2-yl)-N1-((R)-1-(2,5-dimethylphenyl)propyl)-N2-methyl-4-oxoazetidine-1,2-dicarboxamide] | H (“H” indicates 101-1000) | H (“H” indicates 101-1000) | < 10 nM | G (“G” indicates 1-100) |
| CC[C@@H](NC(=O)N1C(=O)[C@H](Cc2ccnc(N)c2)[C@H]1C(=O)N(C)c1nccn1C)c1ccc(C)c(C)c1 [Compound 1-100, (2S,3R)-3-((2-aminopyridin-4-yl)methyl)-N2-(1-methyl-1H-imidazol-2-yl)-N1-((R)-1-(3,4-dimethylphenyl)propyl)-N2-methyl-4-oxoazetidine-1,2-dicarboxamide] | H (“H” indicates 101-1000) | H (“H” indicates 101-1000) | < 10 nM | G (“G” indicates 1-100) |
| CC[C@@H](NC(=O)N1C(=O)[C@H](Cc2ccnc(N)c2)[C@H]1C(=O)N(C)c1nccn1C)c1cc(C)ccc1Cl [Compound 1-101, (2S,3R)-3-((2-aminopyridin-4-yl)methyl)-N2-(1-methyl-1H-imidazol-2-yl)-N1-((R)-1-(2-chloro-5-methylphenyl)propyl)-N2-methyl-4-oxoazetidine-1,2-dicarboxamide] | H (“H” indicates 101-1000) | H (“H” indicates 101-1000) | < 10 nM | G (“G” indicates 1-100) |
| CC[C@@H](NC(=O)N1C(=O)[C@H](Cc2ccnc(N)c2)[C@H]1C(=O)N(C)c1nccn1C)c1cc(C)ccc1F [Compound 1-102, (2S,3R)-3-((2-aminopyridin-4-yl)methyl)-N2-(1-methyl-1H-imidazol-2-yl)-N1-((R)-1-(2-fluoro-5-methylphenyl)propyl)-N2-methyl-4-oxoazetidine-1,2-dicarboxamide] | H (“H” indicates 101-1000) | I (“I” indicates > 500) | < 10 nM | G (“G” indicates 1-100) |
| CC[C@@H](NC(=O)N1C(=O)[C@H](Cc2ccnc(N)c2)[C@H]1C(=O)N(C)c1nccn1C)c1ccc(C)c(Cl)c1 [Compound 1-103, (2S,3R)-3-((2-aminopyridin-4-yl)methyl)-N2-(1-methyl-1H-imidazol-2-yl)-N1-((R)-1-(3-chloro-4-methylphenyl)propyl)-N2-methyl-4-oxoazetidine-1,2-dicarboxamide] | H (“H” indicates 101-1000) | H (“H” indicates 101-1000) | < 10 nM | G (“G” indicates 1-100) |

Now from value to compound, other results behind:

| Ratio: Thrombin/FXIa [1] | Ratio: FXa/FXIa [2] | IC50 [4] | SMILES | Ratio: Trypsin/FXIa [3] |
| --- | --- | --- | --- | --- |
| H (“H” indicates 101-1000) | H (“H” indicates 101-1000) | < 10 nM | CC[C@@H](NC(=O)N1C(=O)[C@H](Cc2ccnc(NC)c2)[C@H]1C(=O)N(C)c1cccs1)c1cccc(Cl)c1 [Compound 1-44, (2S,3R)-3-((2-methylaminopyridin-4-yl)methyl)-N2-(thiophen-2-yl)-N1-((R)-1-(3-chlorophenyl)propyl)-N2-methyl-4-oxoazetidine-1,2-dicarboxamide] | G (“G” indicates 1-100) |
| G (“G” indicates 1-100) | I (“I” indicates > 500) | < 10 nM | CC[C@@H](NC(=O)N1C(=O)[C@H](Cc2ccnc(N)c2)[C@H]1C(=O)N(C)c1cn(C)cn1)C1CCCCC1 [Compound 1-71, (2S,3R)-3-((2-aminopyridin-4-yl)methyl)-N2-(1-methyl-1H-imidazol-4-yl)-N1-((R)-1-cyclohexylpropyl)-N2-methyl-4-oxoazetidine-1,2-dicarboxamide] | G (“G” indicates 1-100) |
| H (“H” indicates 101-1000) | I (“I” indicates > 500) | < 10 nM | CC[C@@H](NC(=O)N1C(=O)[C@H](Cc2ccnc(N)c2)[C@H]1C(=O)N(C)c1nccn1C)c1ccc(C)cc1 [Compound 1-87, (2S,3R)-3-((2-aminopyridin-4-yl)methyl)-N2-(1-methyl-1H-imidazol-2-yl)-N1-((R)-1-(4-methylphenyl)propyl)-N2-methyl-4-oxoazetidine-1,2-dicarboxamide] | G (“G” indicates 1-100) |
| H (“H” indicates 101-1000) | H (“H” indicates 101-1000) | < 10 nM | CC[C@@H](NC(=O)N1C(=O)[C@H](Cc2ccnc(N)c2)[C@H]1C(=O)N(C)c1nccn1C)c1ccc(Cl)cc1 [Compound 1-94, (2S,3R)-3-((2-aminopyridin-4-yl)methyl)-N2-(1-methyl-1H-imidazol-2-yl)-N1-((R)-1-(4-chlorophenyl)propyl)-N2-methyl-4-oxoazetidine-1,2-dicarboxamide] | G (“G” indicates 1-100) |
| H (“H” indicates 101-1000) | I (“I” indicates > 500) | < 10 nM | CC[C@@H](NC(=O)N1C(=O)[C@H](Cc2ccnc(N)c2)[C@H]1C(=O)N(C)c1nccn1C)c1ccc(F)cc1 [Compound 1-98, (2S,3R)-3-((2-aminopyridin-4-yl)methyl)-N2-(1-methyl-1H-imidazol-2-yl)-N1-((R)-1-(4-fluorophenyl)propyl)-N2-methyl-4-oxoazetidine-1,2-dicarboxamide] | G (“G” indicates 1-100) |
